Measurements from article PMC4754628 (Scientific Reports, 2016).

What was measured:
[1] = test system: Kv11.1-3.1; test: Quantitative Western blot of Kv11.1-3.1 expression and trafficking (FG/CG bands) after overnight drug treatment; format: cell-based, human; details: for Kv11.1-3.1 expression and trafficking rescue (FG band) by selective inhibitors of ALLN targets / Trafficking Rescue?: Western blot; for Kv11.1-3.1 expression and trafficking rescue (FG band) by selective inhibitors of ALLN targets: Kv11.1-3.1 cells, single agents or cocktails; for Trafficking Rescue?: Literature compounds screened for Kv11.1-3.1 trafficking rescue
Method: HEK 293 cells were cultured at 37 °C (5% CO2) in Glutamax® Dulbecco’s modified Eagle’s Medium/Ham’s F-12 (Life Technologies, Grand Island, NY) supplemented with 1x Non-essential amino acids (Life Technologies, Grand Island, NY), 1x Penicillin/Streptomycin (Life Technologies, Grand Island, NY) and 10% fetal bovine serum (Sigma Aldrich, Saint Louis, MO). For pharmacological treatments, drugs were dissolved in DMSO and added to media at DMSO final concentrations < 0.2%. Cells were incubated in drug-containing media for 16–20 hours prior to assays.
Cells were washed with ice-cold PBS, harvested in ice-cold PBS, and pelleted by centrifugation at 500 g for 5 minutes. Cell pellets were resuspended with Radioimmunoprecipitation assay (RIPA) buffer (Sigma Aldrich, Saint Louis, MO) and rotated at 4 °C for 1 hour. Lysates were cleared by centrifugation at 16,000 g for 10 minutes and supernatants were analyzed for total protein concentration using a BCA kit (Pierce, Rockford, Illinois). […] Proteins were transferred onto 0.45 μm nitrocellulose membranes and incubated for 1hr in Odyssey® PBS blocking buffer (Li-Cor Biosciences, Lincoln, NE). Membranes were probed with anti-HA (1:5,000, GeneTex, Irvine, CA) and anti-NaK-ATPase (1:2,500, GeneTex, Irvine, CA) primary antibodies in Odyssey® PBS blocking buffer overnight at 4 °C. Anti-HA and anti-NaK-ATPase signals were detected using IRdye 800 donkey anti-rabbit (1:20,000, Li-Cor Biosciences, Lincoln, NE) and IRdye 680 donkey anti-mouse (1:20,000, Li-Cor Biosciences), respectively. The Li-Cor Odyssey® imaging system and software was used for antibody detection and quantification.

[2] = molecular target: T1, Kv11.1-3.1 (Homo sapiens, UniProt Q12809); details: treated Kv11.1-3.1 cells, E4031 or DMSO controls, n = 16
[3] = molecular target: T1, Kv11.1-3.1
[4] = test system: Kv11.1-3.1; test: Co-immunoprecipitation of HA-tagged Kv11.1-3.1 probed for ubiquitin; format: cell-based, human; details: bortezomib 16 hours vs DMSO
Method: (§1) Dynabeads Protein G® (Life Technologies, Grand Island, NY) were prepared according to the manufacturer’s instructions and incubated with HA.11 anti-HA antibody (BioLegend, San Diego, CA) for 30 minutes and then fixed with BS[3] crosslinking reagent (ThermoFischer Scientific, Waltham, MA) to prevent antibody dissociation. Equal amounts of cell lysates from stably expressing Kv11.1 cell lines were prepared as before and then incubated with the prepared beads overnight at 4 °C. Beads were washed and proteins were eluted per the manufacturer’s instructions and visualized via SDS-PAGE. Membranes were probed with the antibodies described previously and anti-ubiquitin (1:1000, Abcam, Cambridge, MA). Antibody detection was performed as before.

[5] = test system: Kv11.1-1A; test: Quantitative immunofluorescence / high content imaging of Kv11.1-1A (sub-cellular and cell surface); format: cell-based, human
Method: (§2) Stable HEK 293 cell lines expressing either the full-length (1A) or deletion Kv11.1 (3.1) channel variant were plated onto 24 well ibiTreat® plates (ibidi, Martinsried, Germany) and grown until 80–90% confluent. For sub-cellular co-localization studies, cells were fixed with 4% paraformaldehyde in PBS for 15 minutes. Cells were simultaneously permeabilized, blocked, and quenched for background fluorescence by incubation in a PBS solution containing 0.1% Triton X-100, 10% normal goat serum, and 0.75% glycine for 15 minutes. Cells were probed with primary antibodies: anti-extracellular loop hERG (1:1000, Sigma Aldrich, Saint Louis, MO), anti-calnexin (1:1000, Abcam, Cambridge, MA), anti-58K Golgi protein (1:200, Abcam), anti-20s proteasome β1 (1:200, Santa Cruz Biotechnology, Dallas, TX). […]. Cell surface labeling with anti-hERG antibody was performed as described above. Cell images were captured with the Operetta® high content imaging system and quantified with Columbus® image analysis suite (both PerkinElmer, Waltham, MA).
Electrophysisology data analysis was performed using Axograph X® (Axograph, Berkley, CA) All data is presented as mean ± SEM unless specified. […] Microscopy data was analyzed with linear mixed models with fixed effects for the treatment variables with a random intercept by replicate/well – hERG and RFP levels were log2-transformed prior to analysis. […]

[6] = test system: Kv11.1-1A; details: 1A expressing cells
[7] = test system: Kv11.1-3.1; test: Quantitative immunofluorescence / high content imaging of Kv11.1-3.1 (sub-cellular and cell surface); format: cell-based, human
Method: as §2
Electrophysisology data analysis was performed using Axograph X® (Axograph, Berkley, CA) All data is presented as mean ± SEM unless specified. Unpaired T-tests, ANOVA, and subsequent Bonferroni corrections were completed using Prism (Graphpad, La Jolla, CA). Microscopy data was analyzed with linear mixed models with fixed effects for the treatment variables with a random intercept by replicate/well – hERG and RFP levels were log2-transformed prior to analysis. P values < 0.05 were accepted as significant.

[8] = test system: Kv11.1-1A; test: Co-immunoprecipitation of HA-tagged Kv11.1-1A probed for ubiquitin; format: cell-based, human; details: bortezomib 16 hours vs DMSO
Method: as §1

[9] = test system: hERG LQT2 mutants; details: some LQT2 mutants; cited from earlier work

T1 sequence (Q12809 1-1063 isoform Q12809-7): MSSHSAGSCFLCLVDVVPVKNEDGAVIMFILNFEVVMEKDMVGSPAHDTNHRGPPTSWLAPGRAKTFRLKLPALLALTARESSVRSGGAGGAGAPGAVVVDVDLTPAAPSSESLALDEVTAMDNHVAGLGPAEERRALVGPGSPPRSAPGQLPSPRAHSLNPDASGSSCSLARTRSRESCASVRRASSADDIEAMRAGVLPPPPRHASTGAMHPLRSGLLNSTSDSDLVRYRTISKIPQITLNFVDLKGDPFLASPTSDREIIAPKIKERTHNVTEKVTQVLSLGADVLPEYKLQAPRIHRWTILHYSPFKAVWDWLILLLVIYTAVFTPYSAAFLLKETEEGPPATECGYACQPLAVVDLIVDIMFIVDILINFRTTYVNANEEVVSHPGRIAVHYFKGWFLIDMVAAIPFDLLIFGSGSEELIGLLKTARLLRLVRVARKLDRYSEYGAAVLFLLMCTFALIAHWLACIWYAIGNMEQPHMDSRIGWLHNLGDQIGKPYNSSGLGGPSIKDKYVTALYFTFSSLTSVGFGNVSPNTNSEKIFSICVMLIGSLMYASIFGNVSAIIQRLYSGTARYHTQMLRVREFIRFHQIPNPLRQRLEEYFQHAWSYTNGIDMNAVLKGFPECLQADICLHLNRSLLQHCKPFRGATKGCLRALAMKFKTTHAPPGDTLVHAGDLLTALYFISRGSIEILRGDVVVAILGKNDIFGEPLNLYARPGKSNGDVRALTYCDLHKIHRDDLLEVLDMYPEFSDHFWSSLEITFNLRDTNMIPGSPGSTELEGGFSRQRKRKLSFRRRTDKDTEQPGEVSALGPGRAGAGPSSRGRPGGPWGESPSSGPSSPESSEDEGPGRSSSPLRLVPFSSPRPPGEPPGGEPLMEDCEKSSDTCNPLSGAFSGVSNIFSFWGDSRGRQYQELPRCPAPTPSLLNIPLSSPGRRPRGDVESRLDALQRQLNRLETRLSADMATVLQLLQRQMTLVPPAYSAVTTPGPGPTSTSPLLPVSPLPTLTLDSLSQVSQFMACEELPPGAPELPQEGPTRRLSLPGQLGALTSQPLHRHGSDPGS

SMILES: CCCNC(=O)[C@H]1O[C@@H]1C(=O)N[C@H](C(=O)N1CCC[C@H]1C(=O)O)[C@@H](C)CC [CA 078]
- Kv11.1-3.1 expression and trafficking rescue (FG band) by selective inhibitors of ALLN targets [1]: only bortezomib was effective

SMILES: C[N+](C)(C)CCOC(N)=O.[Cl-] [Carbamoylcholine Chloride]
- Trafficking Rescue? [1]: No

SMILES: COc1cc(N)c(Cl)cc1C(=O)NC1CCN(CCCOc2ccc(F)cc2)CC1OC (stereo not shown) [Cisapride]
- Trafficking Rescue? [1]: No

SMILES: COC(=O)Nc1nc2ccc(C(=O)c3cccs3)cc2[nH]1 [Nocodazole]
- Trafficking Rescue? [1]: No

SMILES: O=C(O)/C(S)=C/c1ccc(I)cc1 [PD 150606]
- Kv11.1-3.1 expression and trafficking rescue (FG band) by selective inhibitors of ALLN targets [1]: only bortezomib was effective

SMILES: O=C(O)c1ccccc1Nc1ccc(CCc2ccc(Cl)c(Cl)c2)cc1 [PD-118057]
- Trafficking Rescue? [1]: No

SMILES: CCc1ccccc1NC(=O)CSC(=O)NNC(=O)[C@H](Cc1c[nH]c2ccccc12)NC(=O)OC(C)(C)C [SID 26681509]
- Kv11.1-3.1 expression and trafficking rescue (FG band) by selective inhibitors of ALLN targets [1]: only bortezomib was effective

SMILES: N#Cc1ccc(COC[C@H]2O[C@@H](n3c(NCc4ccc(Cl)c(Cl)c4)nc4c(N)ncnc43)[C@H](O)[C@@H]2O)cc1 [VER-155008]
- Trafficking Rescue? [1]: No

SMILES: CC(C)C[C@H](NC(=O)[C@H](Cc1ccccc1)NC(=O)c1cnccn1)B(O)O [bortezomib]
- signal to background ratio in thallium flux assay [2]: roughly 4 fold
- cell membrane capacitance normalized peak tail current ([3]; bortezomib 10 nM treated Kv11.1-3.1 cells, n = 8): 75.93 ± 11.84 pA/pF
- effect on Kv11.1-3.1 deactivation rate kinetics (τ deactivation) ([3]; treated Kv11.1-3.1 cells vs controls, n = 3): no effect
- ubiquitin signal of immunoprecipitated Kv11.1-3.1 channels [4]: decrease in ubiquitin signal
- elevation of Kv11.1 1A protein level (RFP-normalized fluorescence) ([5]; Kv11.1-1A cells cultured with drug): modest elevation
- ratio of surface Kv11.1-1A/RFP, slope m of linear regression ([5]; single cells, untreated m = 0.34): 0.40
- increase of overall channel expression (Total hERG/NaK ATPase) ([1]; Kv11.1-3.1 HEK 293 cells, bortezomib 10 nM): 6 fold
- trafficking efficiency (FG/Total hERG) ([1]; Kv11.1-3.1 HEK 293 cells, bortezomib 10 nM, n = 4): 25 ± 2%
- Kv11.1-3.1 expression and trafficking rescue (FG band) by selective inhibitors of ALLN targets [1]: effective
- Kv11.1-1A band changes on Western blot [6]: only increasing 1A CG expression
- elevation of steady-state Kv11.1-3.1 protein level (RFP-normalized fluorescence) ([7]; Kv11.1-3.1 cells cultured with drug, n = 3): ~3 fold
- Kv11.1-3.1 proteasome domain expression increase ([7]; colocalization domain): not found to be significant
- Kv11.1-3.1 expression in cytoplasm, nuclear regions, ER and Golgi ([7]; subcellular segmentation and colocalization domains): significantly increased
- factor of increase of surface Kv11.1-3.1/RFP ratio ([7]; vs untreated Kv11.1-3.1): 2
- ubiquitin signal of immunoprecipitated 1A channels [8]: accumulation of ubiquitin signal

SMILES: CC(=O)N[C@@H](CSC(=O)[C@]1([C@@H](O)C(C)C)NC(=O)[C@H](C)[C@@H]1O)C(=O)O [lactacystin]
- hERG expression in LQT2 mutants [9]: increase hERG expression
- trafficking rescue in LQT2 mutants [9]: trafficking was unable to be rescued
